Measurements from patent publication US20250032569A1, “COMPOSITION, IN PARTICULAR COSMETIC FORMULATION, COMPRISING A VERBASCOSIDE EXTRACT” (MEDENA AG, priority 2021, published 2025).

What was measured:
Type in all cases: physicochemical
[1] = In vitro spectrophotometric SPF calculated by the Sayre equation (Eq. 1)
Method: Each sample (1 ml) was placed in a 1 cm quartz cell. The absorbance was measured between 250-600 nm at an interval of every 1 nm using a Varian UV/Vis spectrophotometer (Cary 50 Scan). The following parameters were measured and calculated for each sample assuming standard application to the skin—2 mg/cm^2: • the SPF values. • the critical wavelength λC • the UVA/UVB ratio 1. […]
Each sample (1 ml) was placed in a 1 cm quartz cell. The absorbance was measured between 250-600 nm at an interval of every 1 nm using a Varian UV/Vis spectrophotometer (Cary 50 Scan). The following parameters were measured and calculated for each sample assuming standard application to the skin—2 mg/cm^2: • the SPF values. • the critical wavelength λC • the UVA/UVB ratio
The SPF values in vitro were calculated according to the method described by Sayre et al., (Sayre, R M; Agin, P P; LeVee, G J; Marlowe, E. A comparison of in vivo and in vitro testing of sunscreening formulas, Photochem. Photobiol. 1979, 29, 559-566). The calculation was done using Equation 1: […]
where Ss(λ) is the spectral irradiance, Ser(λ) is the CIE erythema action spectrum and T(λ) is the transmission of the sunscreen. The values of Ss(λ) and Ser(λ) were taken from the literature (B. L. Diffey, J. Robson. A new substrate to measure sunscreen protection factors throughout the ultraviolet spectrum, J. Soc. Cosmet. Chem. 1989, 40, 127-133). […]
SPF values were calculated using Eq. 1 for sun protective cosmetics applied at 2 mg/cm^2 (standard application).
The same methods and equations as in the case of plant extracts were applied.
Solutions of sunscreens at concentrations 0.001% were prepared in duplicate and UV-visible absorption spectra were recorded over the range of 250-600 nm (FIG. 1). On the basis of these spectra, the transmission of the sunscreen (T) was found from monochromatic absorbance values at wavelength λ: T=10^−A(λ).
The SPF in vitro was calculated according to the method described by Sayre et al., (Sayre, R M; Agin, P P; LeVee, G J; Marlowe, E. A comparison of in vivo and in vitro testing of sunscreening formulas, Photochem. Photobiol. 1979, 29, 559-566) following equation 1: […]
where Ss(λ) is the spectral irradiance, Ser(λ) the CIE erythema action spectrum and T(λ) the trans-mission of the sunscreen. Data for Ss(λ) and Ser(λ) are available in the literature (B. L. Diffey, J. Robson. A new substrate to measure sunscreen protection factors throughout the ultraviolet spectrum, J. Soc. Cosmet. Chem. 1989, 40, 127-133).
The SPF values were calculated using Eq 1 with the application conditions 2 mg/cm^2 (Standard application recommended by the European Agency).
The SPF value for lotions were calculated using Eq. 1 for three application conditions at 2 mg/cm^2 (standard application), 2.5 mg/cm^2 and 3 mg/cm^2. In the same Table 22, critical wavelength and the UVA/UVB ratios are shown.

[2] = Critical wavelength (λC) from absorption spectra (Eq. 2); details: for critical wavelength: chemical sunscreen, no concentration stated
Method: The Critical Wavelength λC is the wavelength, where the area under the absorbance spectrum for the irradiated product from 290 nm to λC is equal to 90% of the integral value of the absorbance spectrum from 290 to 400 nm and was calculated using Eq. 2:
where A (λ)=monochromatic absorbance values at wavelength λ. The critical wavelength was determined for all samples in order to assess a degree of UVA protection. In cases where the critical wavelength is lower than 370 nm, the protection from UVA is less evident.
The Critical Wavelength λC value for the test product was defined as that wavelength where the area under the absorbance spectrum of the sample from 290 nm to λC is 90% of the integral of the absorbance spectrum from 290 to 400 nm and is calculated using Eq. 2:
[formula] • A(λ)=monochromatic absorbance values at wavelength λ

[3] = SPF calculated by modified Sayre method
Text: In the following Table 20, there are SPF values obtained in vitro spectrophotometrically, which have been calculated by a classical Sayre method (Sayre, R M; Agin, P P; LeVee, G J; Marlowe, E. A comparison of in vivo and in vitro testing of sunscreening formulas, Photochem. Photobiol. 1979, 29, 559-566) and modified Sayre method, which gives results similar to those obtained in the in vivo tests recommended by COLIPA.
• (1) For water insoluble chemical filters, the modified Sayre method gives results close to those calculated by Simulator-Calculator (BASF) and the in vivo tests. The Simulator-Calculator uses the modified Sayre method assuming an exponentiation equal to 0.827 (X^0.827). • (2) For water soluble natural filters, the same modified Sayre method would give results close to those obtained by the in vivo tests (predicted by Simulator-Calculator). Examples of Cosmetic Compositions with Fully Natural Sun Protective Factors • 1. Sun protective lotion SPF 50+, high UV-A protection • 2. Sun protective cream SPF 50+, high UV-A protection • 3. Sun protective serum for pregnant and milking women SPF 50+, high UV-A protection • 4. Sun protective milk for babies SPF 50+, high UV-A protection • 5. Sun protective lotion SPF 20-30, high UV-A protection for people with highly sensitive skin E. Analysis of Sun Protective Parameters of Two Lotions and Cream Containing Lippia citriodora Extract with 40% of Verbascoside.

[4] = UVA/UVB ratio from absorption spectra (Eq. 3) and Boots UVA Star Rating
Method: Critical Wavelength (λC) and the UVA/UVB ratios were also calculated from the absorption spectra and were collected in Table 2. […] According to these International indications, aqueous solutions of Haberlea rhodopensis with different concentrations of myconoside can be attributed to the group of good protection (2 UVA Star Rating).
In order to further characterize solutions as skin photo-protectors from UVA, the UVA/UVB ratio was calculated using Eq. 3: […]
In order to characterize the ability of creams to protect skin against UVA the UVA/UVB ratio was calculated using Eq. 3: […]

[5] = UV filter 0.5% in sun protective cosmetic (Table 20)
[6] = UV filter 1.0% in sun protective cosmetic (Table 20)
[7] = UV filter 2.5% in sun protective cosmetic (Table 20)
[8] = UV filter 5% in sun protective cosmetic (Table 20)
[9] = chemical UV filter 0.5% in sun protective solution (Tables 12-19)
[10] = chemical UV filter 1% in sun protective solution (Tables 12-19)
[11] = chemical UV filter 2.5% in sun protective solution (Tables 12-19)
[12] = chemical UV filter 5% in sun protective solution (Tables 12-19)
[13] = chemical UV filter 10% in sun protective solution (Tables 12-19)
[14] = chemical UV filter 0.5% in sun protective solution
[15] = chemical UV filter 1% in sun protective solution
[16] = chemical UV filter 2.5% in sun protective solution
[17] = chemical UV filter 5% in sun protective solution
[18] = chemical UV filter 10% in sun protective solution
[19] = UV filter 0.5% in sun protective cosmetic
[20] = UV filter 1.0% in sun protective cosmetic
[21] = UV filter 2.5% in sun protective cosmetic
[22] = UV filter 5% in sun protective cosmetic

SMILES	SPF values calculated by the Sayre equation [1, 5]	SPF values calculated by the Sayre equation [1, 6]	SPF values calculated by the Sayre equation [1, 7]	SPF values calculated by the Sayre equation [1, 8]	SPF values [1, 9]	SPF values [1, 10]	SPF values [1, 11]	SPF values [1, 12]	SPF values [1, 13]	Critical wavelength (λC) [2, 14]	Critical wavelength (λC) [2, 15]	Critical wavelength (λC) [2, 16]	Critical wavelength (λC) [2, 17]	Critical wavelength (λC) [2, 18]	critical wavelength [2]	SPF values calculated by Modified Sayre [3, 19]	SPF values calculated by Modified Sayre [3, 20]	SPF values calculated by Modified Sayre [3, 21]	SPF values calculated by Modified Sayre [3, 22]	other results
CCCCC(CC)COC(=O)c1ccc(Nc2nc(Nc3ccc(C(=O)NC(C)(C)C)cc3)nc(Nc3ccc(C(=O)OCC(CC)CCCC)cc3)n2)cc1 (stereo not drawn) [diethylhexyl butamido triazone, Diethylhexyl butamido triazone]	3.2	9.0	39	98	4.1	10	23	44	131	337 nm	337 nm	337 nm	337 nm	337 nm	337 nm	3.2	4.6	7.4	10.6	SPF values calculated by the Sayre equation ([1]; UV filter 10% in sun protective cosmetic (Table 20)): 394; SPF values ([1]; chemical UV filter 10% in sun protective solution (Tables 12-19), listed as ethylhexyl butamido triazone): 137; SPF values calculated by Modified Sayre ([3]; UV filter 10% in sun protective cosmetic): 15.3
CCCCC(CC)COC(=O)c1ccc(Nc2nc(Nc3ccc(C(=O)OCC(CC)CCCC)cc3)nc(Nc3ccc(C(=O)OCC(CC)CCCC)cc3)n2)cc1 (stereo not drawn) [ethylhexyl triazone, Ethylhexyl triazone]	2.8	8	69	389	5.2	14	33	74	271	341 nm	341 nm	341 nm	341 nm	341 nm	341 nm	2.8	4.1	6.8	10.1	SPF values ([1]; chemical UV filter 2.5% in sun protective solution (Tables 12-19), listed as ethyl hexyl triazone): 44; UVA/UVB [4, 14]: 0.21; UVA/UVB [4, 15]: 0.21; UVA/UVB [4, 16]: 0.21; UVA/UVB [4, 17]: 0.21; UVA/UVB [4, 18]: 0.21; ratio UVA/UVB ([4]; chemical sunscreen, no concentration stated): 0.21
C[C@@H]1O[C@@H](O[C@@H]2[C@@H](O)[C@H](OCCc3ccc(O)c(O)c3)O[C@H](CO)[C@H]2OC(=O)/C=C/c2ccc(O)c(O)c2)[C@H](O)[C@H](O)[C@H]1O [Verbascoside, β-(3′,4′-dihydroxyphenyl)ethyl-O-α-L-rhamnopyranosyl (1->3)-β-D-(4-O-caffeoyl)-glucopyranoside]																				SPF values calculated by the Sayre equation ([1]; verbascoside or its analogues from plant extracts 1.0% in sun protective cosmetic (Table 20)): 3.9; SPF values calculated by the Sayre equation ([1]; verbascoside or its analogues from plant extracts 2.5% in sun protective cosmetic (Table 20)): 23; SPF values calculated by the Sayre equation ([1]; verbascoside or its analogues from plant extracts 5% in sun protective cosmetic (Table 20)): 110; SPF values calculated by the Sayre equation ([1]; verbascoside or its analogues from plant/plant cell culture extracts 0.5% in sun protective cosmetic (Table 20)): 2.0; SPF values calculated by Modified Sayre ([3]; verbascoside or its analogues from plant extracts 0.5% in sun protective cosmetic, SPF = a*X^0.827): 2.2; SPF values calculated by Modified Sayre ([3]; verbascoside or its analogues from plant extracts 1.0% in sun protective cosmetic): 3.9; SPF values calculated by Modified Sayre ([3]; verbascoside or its analogues from plant extracts 2.5% in sun protective cosmetic): 8.3; SPF values calculated by Modified Sayre ([3]; verbascoside or its analogues from plant extracts 5% in sun protective cosmetic): 14.8; SPF values calculated by Modified Sayre ([3]; verbascoside or its analogues from plant extracts 8% in sun protective cosmetic): 22; SPF values calculated by Modified Sayre ([3]; verbascoside or its analogues from plant extracts 10% in sun protective cosmetic): 26; SPF values calculated by Modified Sayre ([3]; verbascoside or its analogues from plant extracts 12% in sun protective cosmetic): 31; SPF values calculated by Modified Sayre ([3]; verbascoside or its analogues from plant extracts 20% in sun protective cosmetic): 52
